Assay type in all cases: biochemical
For one experiment, the target named is T1, human Yes1 enzyme (Homo sapiens, UniProt P07947).
T1 construct: made in house
The experiment is described as follows: Yes1 enzyme inhibitory activity (time-resolved fluorometry, biotinylated peptide phosphorylation). The conditions noted are these: read-out: YES_IC50. An outline of the steps:
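Inhibition was expressed against a compound-free control to give IC50, using TR-FRET read-out (Eu-cryptate anti-pTyr antibody, streptavidin-XL665).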

A further experiment has as its target T2, human Src enzyme (Homo sapiens, UniProt P12931).
T2 construct: purchased Carna Biosciences, Inc. 08-173
As to the kind of experiment: Src enzyme inhibitory activity (time-resolved fluorometry, biotinylated peptide phosphorylation). The settings on record: read-out: SRC_IC50. Put shortly:
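Compounds were tested for blocking tyrosine phosphorylation of a biotinylated peptide substrate by recombinant human Src. Phosphorylated product was quantified by time-resolved fluorometry using europium cryptate and XL665 conjugates, and IC50 was calculated against the compound-free control.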

The next experiment deals with T3, human Lck enzyme (Homo sapiens, UniProt P06239).
T3 construct: purchased Carna Biosciences, Inc. 08-170
The experiment is described as follows: Lck enzyme inhibitory activity (time-resolved fluorometry, biotinylated peptide phosphorylation). The settings on record: read-out: LCK_IC50. Put shortly:
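Readout pairs a europium cryptate-labelled anti-phosphotyrosine antibody with XL665-streptavidin, measured by time-resolved fluorescence. IC50 derived from percent inhibition against untreated controls.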

Where [1] appears, read: biotinylated peptide phosphorylation.

Where two headings read alike, the source gives them in different places.

T3 sequence (P06239 whole entry): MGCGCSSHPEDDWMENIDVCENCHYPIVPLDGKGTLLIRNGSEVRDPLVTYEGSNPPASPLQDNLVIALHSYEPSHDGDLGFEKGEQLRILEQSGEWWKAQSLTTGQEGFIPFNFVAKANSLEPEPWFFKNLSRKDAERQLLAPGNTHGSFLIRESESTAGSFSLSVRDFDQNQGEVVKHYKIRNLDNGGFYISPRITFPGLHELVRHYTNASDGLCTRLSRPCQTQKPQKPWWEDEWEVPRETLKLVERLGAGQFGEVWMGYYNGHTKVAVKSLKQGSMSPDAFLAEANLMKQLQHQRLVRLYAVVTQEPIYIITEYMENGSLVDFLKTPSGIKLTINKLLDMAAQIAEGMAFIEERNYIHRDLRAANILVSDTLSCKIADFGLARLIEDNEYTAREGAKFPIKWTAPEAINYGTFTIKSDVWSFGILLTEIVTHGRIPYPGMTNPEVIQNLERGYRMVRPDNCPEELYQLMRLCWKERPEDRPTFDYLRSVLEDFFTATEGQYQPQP
T2 sequence (P12931 whole entry): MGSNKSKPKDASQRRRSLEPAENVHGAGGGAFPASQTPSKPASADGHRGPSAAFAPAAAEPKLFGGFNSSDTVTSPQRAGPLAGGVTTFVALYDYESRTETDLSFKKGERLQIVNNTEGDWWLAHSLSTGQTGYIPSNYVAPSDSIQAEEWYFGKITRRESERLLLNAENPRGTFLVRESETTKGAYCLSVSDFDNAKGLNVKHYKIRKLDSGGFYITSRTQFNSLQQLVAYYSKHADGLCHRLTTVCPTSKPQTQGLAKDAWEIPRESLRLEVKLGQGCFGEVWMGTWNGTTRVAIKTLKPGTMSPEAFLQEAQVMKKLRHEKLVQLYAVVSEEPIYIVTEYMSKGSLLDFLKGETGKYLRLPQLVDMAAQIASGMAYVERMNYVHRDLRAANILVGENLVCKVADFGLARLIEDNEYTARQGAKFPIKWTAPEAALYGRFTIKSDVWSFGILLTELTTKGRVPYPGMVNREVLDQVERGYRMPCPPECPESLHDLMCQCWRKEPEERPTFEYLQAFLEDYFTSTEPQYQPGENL
T1 sequence (P07947 whole entry): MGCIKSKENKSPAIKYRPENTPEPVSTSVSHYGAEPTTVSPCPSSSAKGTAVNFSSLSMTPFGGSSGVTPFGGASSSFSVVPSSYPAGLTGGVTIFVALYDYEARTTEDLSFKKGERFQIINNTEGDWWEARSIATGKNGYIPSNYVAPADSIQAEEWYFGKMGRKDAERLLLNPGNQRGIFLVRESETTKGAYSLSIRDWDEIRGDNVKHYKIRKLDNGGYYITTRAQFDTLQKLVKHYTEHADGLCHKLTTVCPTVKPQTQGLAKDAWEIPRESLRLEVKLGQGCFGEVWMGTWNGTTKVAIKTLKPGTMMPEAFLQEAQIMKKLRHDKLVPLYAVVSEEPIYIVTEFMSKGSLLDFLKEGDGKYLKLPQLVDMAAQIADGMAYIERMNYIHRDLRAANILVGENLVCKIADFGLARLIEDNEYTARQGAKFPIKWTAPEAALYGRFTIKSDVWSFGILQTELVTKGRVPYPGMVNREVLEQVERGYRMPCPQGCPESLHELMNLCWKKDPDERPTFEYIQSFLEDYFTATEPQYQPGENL

Consider `Cc1cc2cc(C(=O)c3cnn(-c4cnc(Oc5c(F)cccc5F)cc4C)c3N)[nH]c2cc1NS(=O)(=O)c1cccc(Cl)n1` [Example 5-1-526, N-[2-[5-amino-1-[6-(2,6-difluorophenoxy)-4-methylpyridin-3-yl]pyrazole-4-carbonyl]-5-methyl-1H-indol-6-yl]-6-chloropyridine-2-sulfonamide], for which the figures for the IC50 on human Yes1 enzyme (setting [1]), at human Src enzyme (setting [1]) and at human Lck enzyme (setting [1]) were 8 nM, 620 nM and 250 nM, respectively.
For `Cc1cccc(S(=O)(=O)Nc2cc3[nH]c(C(=O)c4cnn(-c5ccc(Oc6ccccc6F)cc5C)c4N)cc3cc2C)n1` [Example 5-1-530, N-[2-[5-amino-1-[4-(2-fluorophenoxy)-2-methylphenyl]pyrazole-4-carbonyl]-5-methyl-1H-indol-6-yl]-6-melhylpyridine-2-sulfonamide], in that order: 2.6 nM, 200 nM and 34 nM.
As for `Cc1cc2cc(C(=O)c3cnn(-c4cnc(Oc5ccccc5F)cc4C)c3N)[nH]c2cc1NS(=O)(=O)c1cc(F)cc(C#N)c1` [Example 5-1-497, N-[2-[5-amino-1-[6-(2-fluorophenoxy)-4-methylpyridin-3-yl]pyrazole-4-carbonyl]-5-methyl-1H-indol-6-yl]-3-cyano-5-fluorobenzenesulfonamide], the figures for the IC50 on human Yes1 enzyme (setting [1]), on human Src enzyme (setting [1]) and at human Lck enzyme (setting [1]) were 4.7 nM, 660 nM and 170 nM, respectively.
With `Cc1cc(Oc2cc(Cl)ccc2Cl)ncc1-n1ncc(C(=O)c2cc3cc(F)c(NS(C)(=O)=O)cc3[nH]2)c1N` [Example 5-1-055, N-[2-[5-amino-1-[6-(2,5-dichlorophenoxy)-4-methylpyridin-3-yl]pyrazole-4-carbonyl]-5-fluoro-1H-indol-6-yl]methanesulfonamide], the IC50 was found to be 16 nM on human Yes1 enzyme, 190 nM on human Src enzyme and 94 nM on human Lck enzyme.
With `Cc1cc(Oc2ccccc2F)ccc1-n1ncc(C(=O)c2cc3cc(F)c(NC4CCN(S(C)(=O)=O)CC4)cc3[nH]2)c1N` [Example 5-1-135, [5-amino-1-[4-(2-fluorophenoxy)-2-methylphenyl]pyrazol-4-yl]-[5-fluoro-6-[(1-methylsulfonylpiperidin-4-yl)amino]-1H-indol-2-yl]methanone], the figures for the IC50 at human Yes1 enzyme, on human Src enzyme and on human Lck enzyme were 0.84 nM, 12 nM and 5.3 nM, respectively.
Regarding `Cc1cc(Oc2ccccc2Cl)ncc1-n1ncc(C(=O)c2cc3cc(F)c(NS(=O)(=O)CCCF)cc3[nH]2)c1N` [Example 4-2-023, N-[2-[5-amino-1-[6-(2-chlorophenoxy)-4-methylpyridin-3-yl]pyrazole-4-carbonyl]-5-fluoro-1H-indol-6-yl]-3-fluoropropane-1-sulfonamide], the IC50 on human Yes1 enzyme (setting [1]) amounted to 1.7 nM; on human Src enzyme (setting [1]), 84 nM; at human Lck enzyme (setting [1]), 47 nM.
Take `Cc1cc(Oc2c(F)cccc2F)ncc1-n1ncc(C(=O)c2cc3cc(OCC(F)F)c(C4CCOCC4)cc3[nH]2)c1N` [Example 5-1-259, [5-amino-1-[6-(2,6-difluorophenoxy)-4-methylpyridin-3-yl]pyrazol-4-yl]-[5-(2,2-difluoroethoxy)-6-(oxan-4-yl)-1H-indol-2-yl] methanone]: the IC50 on human Yes1 enzyme stood at 7.5 nM; on human Src enzyme it was 50 nM; at human Lck enzyme it was 25 nM.
For the compound `Cc1cc2cc(C(=O)c3cnn(-c4cnc(Oc5c(F)cccc5F)cc4C)c3N)[nH]c2cc1C1CCN(S(=O)(=O)C2CC2)CC1` [Example 5-1-144, [5-amino-1-[6-(2,6-difluorophenoxy)-4-methylpyridin-3-yl]pyrazol-4-yl]-[6-(1-cyclopropylsulfonylpiperidin-4-yl)-5-methyl-1H-indol-2-yl]methanone], the values for the IC50 at human Yes1 enzyme, at human Src enzyme and at human Lck enzyme were 5.7 nM, 81 nM and 76 nM, respectively.
Regarding `Cc1cc(Oc2ccccc2F)cc(F)c1-n1ncc(C(=O)c2cc3cc(OCC(F)F)c(NS(C)(=O)=O)cc3[nH]2)c1N` [Example 4-24-025, N-[2-[5-amino-1-[2-fluoro-4-(2-fluorophenoxy)-6-methylphenyl]pyrazole-4-carbonyl]-5-(2,2-difluoroethoxy)-1H-indol-6-yl]methanesulfonamide], the figures for the IC50 on human Yes1 enzyme (setting [1]), on human Src enzyme (setting [1]) and at human Lck enzyme (setting [1]) were 1.6 nM, 59 nM and 13 nM, respectively.
As for `Cc1cc(Oc2ccccc2F)ccc1-n1ncc(C(=O)c2cc3cc(F)c(N4C(=O)NC5(CCC5)C4=O)cc3[nH]2)c1N` [Example 5-1-374, 7-[2-[5-amino-1-[4-(2-fluorophenoxy)-2-methylphenyl]pyrazole-4-carbonyl]-5-fluoro-1H-indol-6-yl]-5,7-diazaspiro[3.4]octane-6,8-dione], the results for the IC50 at human Yes1 enzyme, on human Src enzyme and on human Lck enzyme were 2.9 nM, 36 nM and 13 nM, respectively.
Turning to `Cc1cc(Oc2ccccc2F)ccc1-n1ncc(C(=O)c2cc3cc(F)c(NS(=O)(=O)NC(C)C)cc3[nH]2)c1N` [Example 4-5-004, [5-amino-1-[4-(2-fluorophenoxy)-2-methylphenyl]pyrazol-4-yl]-[5-fluoro-6-(propan-2-ylsulfamoylamino)-1H-indol-2-yl]methanone], the figures for the IC50 on human Yes1 enzyme (setting [1]), at human Src enzyme (setting [1]) and at human Lck enzyme (setting [1]) were 3.3 nM, 65 nM and 41 nM, respectively.
For the compound `CC(=O)N1CCC(c2cc3[nH]c(C(=O)c4cnn(-c5cnc(Oc6ccccc6F)cc5C)c4N)cc3cc2OC(F)F)CC1` [Example 4-17-008, 1-[4-[2-[5-amino-1-[6-(2-fluorophenoxy)-4-methylpyridin-3-yl]pyrazole-4-carbonyl]-5-(difluoromethoxy)-1H-indol-6-yl]piperidin-1-yl]ethanone], the values for the IC50 at human Yes1 enzyme (setting [1]), at human Src enzyme (setting [1]) and on human Lck enzyme (setting [1]) were 1.6 nM, 13 nM and 5.5 nM, respectively.
For `Cc1cc2cc(C(=O)c3cnn(-c4cnc(Oc5c(F)cccc5F)cc4C)c3N)[nH]c2cc1N1C(=O)N[C@@H](C)C1=O` [Example 5-1-443, (5S)-3-[2-[5-amino-1-[6-(2,6-difluorophenoxy)-4-methylpyridin-3-yl]pyrazole-4-carbonyl]-5-methyl-1H-indol-6-yl]-5-methylimidazolidine-2,4-dione], in that order: 1.4 nM, 25 nM and 4.9 nM.
Turning to `Cc1cc(Oc2c(F)cccc2F)ncc1-n1ncc(C(=O)c2cc3cc(OCC(F)F)c(NS(=O)(=O)Cc4ccccc4)cc3[nH]2)c1N` [Example 5-1-296, N-[2-[5-amino-1-[6-(2,6-difluorophenoxy)-4-methylpyridin-3-yl]pyrazole-4-carbonyl]-5-(2,2-difluoroethoxy)-1H-indol-6-yl]-1-phenylmethanesulfonamide], the IC50 on human Yes1 enzyme was found to be 5.9 nM; at human Src enzyme, 150 nM; at human Lck enzyme, 46 nM.
As to `COc1cc2cc(C(=O)c3cnn(-c4ccc(Oc5cccc(F)c5F)cc4C)c3N)[nH]c2cc1NS(C)(=O)=O` [Example 4-1-005, N-[2-[5-amino-1-[4-(2,3-difluorophenoxy)-2-methylphenyl]pyrazole-4-carbonyl]-5-methoxy-1H-indol-6-yl]methanesulfonamide], the results for the IC50 at human Yes1 enzyme (setting [1]), on human Src enzyme (setting [1]) and on human Lck enzyme (setting [1]) were 1 nM, 63 nM and 7.8 nM, respectively.
In the case of `Cc1cc(Oc2ccccc2F)ccc1-n1ncc(C(=O)c2cc3cc(OC(F)F)c(NS(=O)(=O)C4CC4)cc3[nH]2)c1N` [Example 4-24-001, N-[2-[5-amino-1-[4-(2-fluorophenoxy)-2-methylphenyl]pyrazole-4-carbonyl]-5-(difluoromethoxy)-1H-indol-6-yl]cyclopropanesulfonamide], the IC50 on human Yes1 enzyme (setting [1]) was 3.6 nM; at human Src enzyme (setting [1]), 110 nM; at human Lck enzyme (setting [1]) it was 36 nM.
With `Cc1cc(Oc2ccccc2F)ncc1-n1ncc(C(=O)c2cc3cc(OC(F)F)c(N4CCOCC4)cc3[nH]2)c1N` [Example 4-25-022, [5-amino-1-[6-(2-fluorophenoxy)-4-methylpyridin-3-yl]pyrazol-4-yl]-[5-(difluoromethoxy)-6-morpholin-4-yl-1H-indol-2-yl]methanone], the IC50 at human Yes1 enzyme (setting [1]) was 5.9 nM; at human Src enzyme (setting [1]) it was 59 nM; at human Lck enzyme (setting [1]), 10 nM.
For the compound `Cc1cc(Oc2ccccc2F)ncc1-n1ncc(C(=O)c2cc3cc(OCC(F)F)c(NS(C)(=O)=O)cc3[nH]2)c1N` [Example 4-24-028, N-[2-[5-amino-1-[6-(2-fluorophenoxy)-4-methylpyridin-3-yl]pyrazole-4-carbonyl]-5-(2,2-difluoroethoxy)-1H-indol-6-yl]methanesulfonamide], the IC50 on human Yes1 enzyme (setting [1]) came to 1.2 nM; at human Src enzyme (setting [1]), 37 nM; on human Lck enzyme (setting [1]) it was 14 nM.
On to `Cc1cc(Oc2c(F)cccc2F)ncc1-n1ncc(C(=O)c2cc3cc(OC4CCN(C5CCCC5)CC4)c(-c4ccccc4F)cc3[nH]2)c1N` [Example 5-1-310, [5-amino-1-[6-(2,6-difluorophenoxy)-4-methylpyridin-3-yl]pyrazol-4-yl]-[5-(1-cyclopentylpiperidin-4-yl)oxy-6-(2-fluorophenyl)-1H-indol-2-yl]methanone], for which the values for the IC50 on human Yes1 enzyme, on human Src enzyme and at human Lck enzyme were 3.4 nM, 38 nM and 22 nM, respectively.
In the same order, the values of `Cc1cc(Oc2ccccc2F)ccc1-n1ncc(C(=O)c2cc3cc(OC4CCN(C(C)C)CC4)c(F)cc3[nH]2)c1N` [Example 5-1-203, [5-amino-1-[4-(2-fluorophenoxy)-2-methylphenyl]pyrazol-4-yl]-[6-fluoro-5-(1-propan-2-ylpiperidin-4-yl)oxy-1H-indol-2-yl]methanone] are 0.36 nM, 7 nM and 6.2 nM.
